According to ChEMBL document CHEMBL3352382, “New benzimidazole-2-urea derivates as tubulin inhibitors” (Bioorg Med Chem Lett, 2014):
Calls of active or inactive are those of the source. No cut-off for these calls is given here.

Tests used:
NCI-H460 = test: Cytotoxicity against human NCI-H460 cells assessed as growth inhibition by MTT assay; assay type: functional, cell-based
COLO 205 = test: Cytotoxicity against human COLO205 cells assessed as growth inhibition by MTT assay; assay type: functional, cell-based
Tubulin (Homo sapiens) [1] = target: T1, Tubulin (Homo sapiens) (UniProt P68371+Q9H4B7+P0DPH7+P68366+Q13509+Q71U36+P04350+Q3ZCM7+P07437+P68363+Q9BQE3+Q6PEY2+Q13885+Q9BVA1+Q9BUF5); test: Inhibition of tubulin in human NCI-H460 cells assessed as reduction in spindles formation at 100 nM after 8 hrs by immunofluorescence technique; assay type: cell-based
Tubulin (Homo sapiens) [2] = target: T1, Tubulin (Homo sapiens); test: Inhibition of tubulin in human NCI-H460 cells assessed as depolymerization of microtubule cytoskeleton after 8 hrs by immunofluorescence technique; assay type: cell-based
HepG2 = test: Cytotoxicity against human HepG2 cells assessed as growth inhibition after 72 hrs by CCK-8 assay; assay type: functional, cell-based; details: HepG2, 72 h
[3] = Cytotoxicity against human MDA-MB-435S cells assessed as growth inhibition after 72 hrs by CCK-8 assay; assay type: functional, cell-based
A-431 = test: Cytotoxicity against human A431 cells assessed as growth inhibition after 72 hrs by CCK-8 assay; assay type: functional, cell-based; details: A-431, 72 h
K562 = test: Cytotoxicity against human K562 cells assessed as growth inhibition after 72 hrs by CCK-8 assay; assay type: functional, cell-based; details: K562, 72 h
HeLa = test: Cytotoxicity against human HeLa cells assessed as growth inhibition after 72 hrs by CCK-8 assay; assay type: functional, cell-based

Compound | IC50 (NCI-H460) [nM] | IC50 (COLO 205) [nM] | Activity (Tubulin (Homo sapiens) [1]) | Activity (Tubulin (Homo sapiens) [2]) | IC50 (HepG2) [nM] | IC50 [3] [nM] | IC50 (A-431) [nM] | IC50 (K562) [nM] | IC50 (HeLa) [nM]
O=C(Cc1ccccc1)Nc1nc2cc(Oc3ccccc3)ccc2[nH]1 | > 10000 | 11400 |  |  |  |  |  |  | 
CNC(=O)Nc1nc2cc(Oc3cccc(C#N)c3)ccc2[nH]1 |  |  | Active | Dose-dependent effect |  |  |  |  | 
COc1cc2c(c(OC)c1OC)-c1ccc(OC)c(=O)cc1[C@@H](NC(C)=O)CC2 [COLCHICINE] | 21 | 3 |  |  | 1710 | 7 | 8 | 1 | 704
CC(=O)O[C@H]1C(=O)[C@@]2(C)[C@H]([C@H](OC(=O)c3ccccc3)[C@]3(O)C[C@H](OC(=O)[C@H](O)[C@@H](NC(=O)c4ccccc4)c4ccccc4)C(C)=C1C3(C)C)[C@]1(OC(C)=O)CO[C@@H]1C[C@@H]2O [PACLITAXEL] | 10 | 3 |  |  | 990 | 9 | 7 | 4 | 410
